These results are taken from US20120251496A1, “EZATIOSTAT FOR TREATING MULTIPLE MYELOMA” (Telik, Inc., priority 2011, published 2012).

Assay [1] has as its system relapsed/refractory myeloma patients. The following applies: thalidomide alone; cited from earlier work.
Assay [2] deals with U266B1. Kind of assay: multiple myeloma cell proliferation, U266B1. The assay is classed as cell-based. The note with it: U266B1, Human multiple myeloma. The source says:
(§1) The effect that ezatiostat has on multiple myeloma proliferation is tabulated below (Table 1).

In assay [3] the test system is RPMI-8226. Kind of assay: multiple myeloma cell proliferation, RPMI-8226. Type of assay: cell-based. The following applies: RPMI-8226, Human multiple myeloma.
Description: as §1

The test system of assay [4] is ARH77. Kind of assay: multiple myeloma cell proliferation, ARH77. The following applies: ARH-77, ARH77, Human multiple myeloma. The assay is classed as cell-based.
Description: as §1

The subject of assay [5] is human RPMI8226 multiple myeloma cell. Kind of assay: combination with melphalan, inhibition of multiple myeloma cell proliferation. The assay is classed as cell-based. The note with it: added together with melphalan; RPMI8226 cells; FIG. 1.

On to `O=C1CCC(N2C(=O)c3ccccc3C2=O)C(=O)N1` (centres unmarked) [Thalidomide, thalidomide], for which the partial response rates result in assay [1] was “about 30 % of patients”.

Broadly, the IC50 is the concentration that gives 50% inhibition. High values mean lower potency, low ones higher potency. Regarding `CCOC(=O)[C@@H](N)CCC(=O)N[C@@H](CSCc1ccccc1)C(=O)N[C@@H](C(=O)OCC)c1ccccc1` [ezatiostat], the concentration for half-maximal inhibition (IC50) was 860 nM in assay [2], 33000 nM in assay [3] and 2230 nM in assay [4]. Further, the “synergy with melphalan in inhibiting cell proliferation” value in assay [5] is “demonstrated synergy with melphalan”.
